{"source": "patent US20060222707A1", "about": "(priority 2005, published 2006)", "test": "Small volume in vitro release test in 50 ml 0.1N HCl", "format": "physicochemical", "details": "37° C., 150 rpm", "protocol": "The formulations were tested for their small volume in vitro release characteristics in 50 ml 0.1N HCl at 37° C. and 150 rpm using the following procedure: III. Instrumentation (or Equivalent) a. Automated Dissolution System comprising: Hanson SR8 Plus Test Station Hanson Auto Plus Maximiser System Controller Hanson Auto Plus MultiFill Fraction Collector b. HPLC System comprising: pump—Merck Hitachi L-7100 autoinjector—Merck Hitachi L-7200 column oven—Merck Hitachi L-7300 detector—Merck Hitachi L-7400 interface and integration software—Merck Hitachi D-7000\n0.1N HCl Preparation Dilute 8.5 ml HCl 37% to 1 liter with purified water. Procedure Place one weighed capsule in each vessel containing 0.1N HCl and immediately operate the apparatus for 30 min. Unless otherwise specified, 3 ml samples are withdrawn from each vessel and immediately filtered through PTFE membranes at 15 and 30 min.\nThe small volume was chosen as a model of the conditions in a fasted stomach.", "data": [{"smiles": "CC(C)OC(=O)C(C)(C)Oc1ccc(C(=O)c2ccc(Cl)cc2)cc1", "note": "[Micronized Fenofibrate]", "values": [{"measurement": "dissolution under small volume conditions (in words)", "value": "no dissolution at all"}]}]}
